Common to all, as to assay: DTP human tumour cell line panel, 48 h
The subject of experiment [1] is M14 melanoma.
Experiment [2] concerns A498 renal.
Experiment [3] deals with RPMI-8226 leukemia.
The test system of experiment [4] is MDA-MB-231 breast.
The subject of experiment [5] is UO-31 renal.

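The compound was tested at five concentrations on cells cultured in 96-well plates, with a 48-hour exposure period. GI50 = concentration required for 50% inhibition of growth. TGI: concentration producing complete growth inhibition.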

As usually defined, the TGI is the concentration giving total growth inhibition. In the case of `N[C@@H]1C[C@H](N)c2c(Cl)sc(Cl)c21`, the TGI in experiment [1], in experiment [2], in experiment [3], in experiment [4] and in experiment [5] was more than 100 µM each time.

As for `COc1ccc(NC=O)c(C(O)CCNC(C)=O)c1` (stereo unspecified), the TGI in experiment [1], in experiment [2], in experiment [3], in experiment [4] and in experiment [5] was more than 100 µM throughout.

On to `CN(C)c1ccc(C2CC(=O)CC(c3ccc(N(C)C)cc3)C23C(=O)NC(=O)NC3=O)cc1` (stereo unspecified), for which the TGI in experiment [1], in experiment [3], in experiment [4] and in experiment [5] was more than 25 µM in each case.

Consider `O=C1C(NCCc2cc(Br)c(O)c(Br)c2)=CC(=O)c2ncccc21`, for which the TGI was found to be 8.36 µM in experiment [1]; 9.88 µM in experiment [2]; 23.2 µM in experiment [3]; 29.5 µM in experiment [4]; 41.6 µM in experiment [5].

With `Nc1ncc2c(n1)-c1ccccc1OC2NC1CC1` (stereo unspecified), the TGI in experiment [1], in experiment [2], in experiment [3], in experiment [4] and in experiment [5] was more than 100 µM in each case.

`CC1CCCc2c(-c3ccc(Cl)cc3)nc(N)c(C#N)c21` (stereo unspecified): the TGI in experiment [1] is 86 µM; in experiment [2] it was 89 µM; in experiment [3], 37.9 µM; in experiment [4], more than 100 µM; in experiment [5] it was 61.7 µM.

On to `CC(=O)Nc1c(C)cc(OCC(=O)O)cc1C`, for which the TGI in experiment [1], in experiment [2], in experiment [3], in experiment [4] and in experiment [5] was more than 100 µM throughout.

In the case of `COc1cc(C2c3cccc4cccc(c34)C3CCC(=O)N32)cc(O)c1O` (stereo unspecified), the TGI was more than 50 µM in experiment [1], more than 50 µM in experiment [2], 30.9 µM in experiment [3] and more than 50 µM in experiment [5].

As for `CC(C)=CCC/C(C)=C/Cc1cc(/C=C/c2cc(O)c(CC=C(C)C)c(O)c2)cc(O)c1O`, the TGI in experiment [1] was 16 µM; in experiment [2], 20.6 µM; in experiment [3], 3.68 µM; in experiment [4], 23.8 µM; in experiment [5] it was 2.89 µM.

Regarding `COc1ccc(NS(=O)CCc2ccccc2)cc1` (stereo unspecified), the TGI in experiment [1], in experiment [3], in experiment [4] and in experiment [5] was more than 100 µM throughout.

On to `CCC(=O)N(c1ccccc1)C(C)CN1CCC(O)(c2ccccc2)CC1` (stereo unspecified), for which the TGI in experiment [1], in experiment [2], in experiment [3], in experiment [4] and in experiment [5] was more than 100 µM in each case.

For `CN(C)c1ccc(C(C#N)N2CCCN(C(C#N)c3ccc(N(C)C)cc3)C2c2ccc(N(C)C)cc2)cc1` (stereo unspecified), the TGI in experiment [1], in experiment [2], in experiment [3], in experiment [4] and in experiment [5] was more than 100 µM in each case.

Consider `CCOC(=O)CNC(=O)C(CSC(=O)N(O)c1ccc(Br)cc1)NC(=O)CCC(N)C(=O)OCC` (stereo unspecified), for which the TGI in experiment [1], in experiment [2], in experiment [3], in experiment [4] and in experiment [5] was more than 50 µM in each case.

As to `CCCOC(=O)c1cc(C(=CCC[C@H]2CC[C@@]3(C)[C@@H](CC[C@@H]4[C@@H]3CC[C@]3(C)[C@@H](C(C)CCCC(C)C)CC[C@@H]43)C2)c2cc(Cl)c(O)c(C(=O)OCCC)c2)cc(Cl)c1O` (stereo partly specified), the TGI in experiment [2], in experiment [3] and in experiment [4] was more than 50 µM throughout.

As to `CCOP(=O)(CS(C)=O)O[C@@H]1C[C@H](C)CC[C@H]1C(C)C` (stereo partly specified), the total growth inhibition concentration (TGI) in experiment [1] is 31.2 µM; in experiment [2], 4.87 µM; in experiment [3], 5.3 µM; in experiment [4], 12.8 µM; in experiment [5], 7.15 µM.

`Fc1ccc(C(OCCN2CCC3CCC(C2)N3CCCc2ccccc2)c2ccc(F)cc2)cc1` (stereo unspecified): the TGI in experiment [1] worked out at 4.76 µM; in experiment [2], 11.8 µM; in experiment [3], 5.11 µM; in experiment [4] it was 13.6 µM; in experiment [5], 16.3 µM.

Consider `C/C(C=O)=N\Nc1cc(C)c2ccccc2n1`, for which the TGI in experiment [1] is 31.8 µM; in experiment [2], 28.9 µM; in experiment [3] it was 39 µM; in experiment [4] it was 32.3 µM; in experiment [5], 28.1 µM.

On to `CSc1nc(C)cc(Nc2ccc(O)c(CN3CCCCC3)c2)n1`, for which the TGI in experiment [1] was 31.8 µM; in experiment [2], 53.1 µM; in experiment [3], 71.4 µM; in experiment [5], more than 100 µM.

Take `CC(=O)c1c2c(cc3c1CC1(Cc4cc5c(cc4C1)CCC5)C3)CCC2`: the TGI in experiment [1], in experiment [2], in experiment [3], in experiment [4] and in experiment [5] was more than 100 µM throughout.

`COc1ccccc1NC(=O)C(C#N)=C(SC)SC`: the TGI in experiment [1], in experiment [2], in experiment [3], in experiment [4] and in experiment [5] was more than 100 µM each time.

As to `NC(=S)N/N=C/c1cc(CN2CCOCC2)c(N)cn1`, the TGI in experiment [1] is 50.9 µM; in experiment [2], more than 100 µM; in experiment [3], more than 100 µM; in experiment [4] it was more than 100 µM; in experiment [5] it was more than 100 µM.

Regarding `COc1ccc(CSCc2cc(OC)c(OC)c(OC)c2)cc1`, the TGI in experiment [1], in experiment [2], in experiment [3], in experiment [4] and in experiment [5] was more than 100 µM throughout.

The GI50 is the concentration giving 50% growth inhibition. With `CC(=O)OCC(OC(C)=O)C(OC(C)=O)C(/C=N/N(C(C)=O)S(=O)(=O)c1ccc(/C=C2\NC(=O)NC2=O)cc1)OC(C)=O` (stereo unspecified), the TGI in experiment [1], in experiment [2], in experiment [3], in experiment [4] and in experiment [5] was more than 100 µM throughout. Moreover, the GI50 in experiment [3] is 0.583 µM.

Consider `CCOC(=O)[C@H]1C[C@@H](C(=O)c2ccccc2)N2N=C(c3ccc(Br)cc3)C=C[C@H]12`, for which the TGI in experiment [1], in experiment [2], in experiment [3], in experiment [4] and in experiment [5] was more than 100 µM throughout.

In the case of `O=C(Nc1ccccc1)N1CCNC1=S`, the TGI in experiment [1], in experiment [2], in experiment [3], in experiment [4] and in experiment [5] was more than 100 µM throughout.

In the case of `O=C(O)CCC(=O)Nc1ccc2c(c1)S(=O)(=O)N(CC(=O)O)C2=O`, the TGI in experiment [1], in experiment [2], in experiment [3], in experiment [4] and in experiment [5] was more than 100 µM throughout.

Turning to `O=C(CNC(=O)OCc1ccccc1)NCCCCC(NC(=O)OCc1ccccc1)C(=O)O` (stereo unspecified), the TGI in experiment [1], in experiment [2], in experiment [3], in experiment [4] and in experiment [5] was more than 100 µM in each case.

`N#Cc1c(-c2ccccc2)c(C#N)c(=O)n(NS(=O)(=O)c2ccccc2)c1O`: the TGI in experiment [1], in experiment [2], in experiment [3] and in experiment [4] was more than 100 µM each time.

Turning to `CC(C#N)Nc1ccc(Oc2ccc(C(C)(C)c3ccc(Oc4ccc(NC(C)C#N)cc4)cc3)cc2)cc1` (stereo unspecified), the TGI in experiment [1], in experiment [2], in experiment [4] and in experiment [5] was more than 100 µM throughout.

As to `CCOc1ccc(C2c3[nH]c4ccccc4c3CCN2C(=O)c2cccs2)cc1` (stereo unspecified), the TGI in experiment [1], in experiment [2], in experiment [3], in experiment [4] and in experiment [5] was more than 100 µM in each case.

Take `CSc1nc(=S)[nH]c2n[nH]c(C)c12`: the TGI in experiment [1], in experiment [2], in experiment [3], in experiment [4] and in experiment [5] was more than 100 µM in each case.

For the compound `COc1c(O)cc(/C=C/c2cc(O)cc3c2[C@@]2(C(=O)O3)c3c(O)cc(O)cc3OC2c2cccc(O)c2)cc1O` (stereo partly specified), the TGI in experiment [1] was more than 100 µM; in experiment [2], more than 100 µM; in experiment [3], 52.8 µM; in experiment [4] it was more than 100 µM; in experiment [5], more than 100 µM.

Consider `Cn1c(=O)nc2n(CCO)c(-c3ccccc3)c(-c3ccccc3)nc-2c1=O`, for which the TGI in experiment [1], in experiment [2], in experiment [3], in experiment [4] and in experiment [5] was more than 100 µM throughout.

Regarding `Oc1ccccc1C=Nc1ccc(Oc2ccc(Cl)cc2)c(Cl)c1`, the TGI stood at 46 µM in experiment [1]; 33.7 µM in experiment [2]; 81.1 µM in experiment [3]; 40.4 µM in experiment [4]; 24.2 µM in experiment [5].

Regarding `O=c1nc2n(CCO)c(-c3ccccc3)c(-c3ccccc3)nc-2c(=O)[nH]1`, the TGI in experiment [1], in experiment [2], in experiment [3], in experiment [4] and in experiment [5] was more than 100 µM each time.

Regarding `Cc1[nH]c2ncn(/N=C/c3ccccc3)c(=N)c2c1Cc1ccccc1`, the TGI in experiment [1], in experiment [2], in experiment [3], in experiment [4] and in experiment [5] was more than 100 µM throughout.

Consider `O=c1c2cc(I)ccc2nc(-c2cccs2)n1Nc1ccccc1`, for which the TGI in experiment [1], in experiment [3] and in experiment [5] was more than 100 µM each time.

Turning to `N#Cc1cnn2c1n[n+]([O-])c1ccc(Cl)cc12`, the TGI is 31.8 µM in experiment [1]; 46 µM in experiment [2]; more than 100 µM in experiment [3]; 35.5 µM in experiment [4]; 21.7 µM in experiment [5].

Take `COc1cc(/C=C2\CCCC3=C2NC(N)=NC3c2cc(OC)c(OC)c(OC)c2)cc(OC)c1OC` (stereo unspecified): the GI50 in experiment [1] is 0.633 µM; in experiment [3], 0.291 µM; in experiment [4], 3.87 µM. Besides, the TGI was 2.91 µM in experiment [1], 1.79 µM in experiment [3] and more than 100 µM in experiment [4].

With `CN1CC=C(OP(=O)(NCc2ccccc2)N(CCCl)CCCl)CC1` (stereo unspecified), the TGI in experiment [1], in experiment [2], in experiment [3], in experiment [4] and in experiment [5] was more than 100 µM in each case.

On to `CCn1c(=O)c2c(=O)[nH][nH]c2c2ccccc21`, for which the TGI in experiment [2], in experiment [3], in experiment [4] and in experiment [5] was more than 100 µM throughout.

Take `CCOC(=O)CCc1c(C(=O)OCC)[nH]c(/C=C2/NC(=O)C(C)=C2CC)c1C`: the TGI in experiment [1] was 20.8 µM; in experiment [2], 77.6 µM; in experiment [4] it was 48.3 µM; in experiment [5], 10.5 µM.

With `CN(CCO)CC(=O)CC(O)(C(F)(F)F)C(F)(F)F`, the TGI in experiment [1], in experiment [2], in experiment [3], in experiment [4] and in experiment [5] was more than 100 µM throughout.

Turning to `COc1ccc(/C=C/C(=O)NCC(NC(=O)/C=C/c2ccc(OC)c(OC)c2)C(=O)O)cc1OC` (stereo unspecified), the TGI in experiment [1], in experiment [2], in experiment [3], in experiment [4] and in experiment [5] was more than 100 µM each time.

In the case of `C1CSCC2(COC2)CS1`, the TGI in experiment [2] and in experiment [5] was more than 100 µM in each case.

On to `Clc1cc(Cl)cc(N2N=C(c3cccc(Nc4ccncc4)c3)CC2c2ccccc2)c1` (stereo unspecified), for which, in experiment [2], the GI50 is 1.81 µM and the TGI is 4.42 µM.

Consider `CC1C2CC(C(C3C(=O)C4CC3C(C)(C)C4C)C2=O)C1(C)C` (stereo unspecified), for which the TGI in experiment [1], in experiment [2], in experiment [4] and in experiment [5] was more than 100 µM in each case.

As for `N#C/C(=C\c1ccc(Cl)cc1)c1nc2ccccc2c(=O)[nH]1`, the TGI in experiment [1], in experiment [3], in experiment [4] and in experiment [5] was more than 100 µM each time.

Consider `Oc1cn(-c2ccc(Cl)cc2)nc1-c1nnc(Nc2ccccc2)o1`, for which the TGI in experiment [1] was found to be 37.5 µM; in experiment [2] it was 29.5 µM; in experiment [4] it was 27.4 µM; in experiment [5] it was 46.1 µM.

These data come from PubChem BioAssay (NCI).
